Laboratory results taken from patent publication US9938335B2, “Glucagon and GLP-1 co-agonist compounds” (Eli Lilly and Company, priority 2015, dated 2018).
Marks after values point to notes of the source that are not given here.

How the values were obtained:
[1] = tested on: DIO mice (C57BL/6); assay: Oral Glucose Tolerance Test (OGTT) in DIO mice; format: in vivo, mouse; conditions: for Glucose AUC (% of vehicle): male DIO mice, OGTT (2 g/kg) 16 hours post injection
Experimental: Diet-induced obese (DIO) mouse model is a model of insulin resistance. Five to six months old male DIO mice (C57BL/6) from Taconic Biosciences are used in this study. Animals are individually housed in a temperature-controlled (24° C.) facility with a 12 hour light/dark cycle (lights on 06:00), and free access to food and water. The acclimation period to the facility is two weeks. The day before the study, animals are randomized into groups based on their body weight. That same afternoon, animals are fasted in clean cages and dosed with vehicle (40 mM Tris-HCl, pH 8.0) or test articles by subcutaneous injection. The following morning, 16 hours post the peptide injection, fasting body weights are obtained to calculate glucose doses. Blood samples are taken to measure time zero glucose. Animals are then given an oral gavage of glucose (2 g/kg). Two glucose readings via glucometers were obtained at 15, 30, 60 and 120 minutes post oral glucose. The average of two glucose readings is reported at each time point and an area under the curve is calculated. Statistics were analyzed using ANOVA with Dunnett's comparison by JMP 6; significance is denoted at p≤0.05 vs. vehicle.

[2] = tested on: STZ-treated DIO mice (C57BL/6); assay: OGTT in Streptozotocin (STZ)-treated DIO mice; format: in vivo, mouse; conditions: for Glucose AUC (% of vehicle): male STZ mice, OGTT (2 g/kg) 16 hours post injection
Experimental: STZ-treated mouse model is a model of early diabetes. Five to six months old male DIO mice (C57BL/6) from Taconic Biosciences are used in this study. Animals are individually housed in a temperature-controlled (24° C.) facility with a 12 hour light/dark cycle (lights on 6:00), and free access to food and water. After two weeks acclimation to the facility, mice are injected intraperitoneally with 50 mg/kg of STZ on Tuesday and Friday. Two weeks post the injection, animals with glucose levels between 180-300 mg/dL at 09:00 are selected for the OGTT study. The day before the study, animals are randomized into groups based on body weight and their glucose levels. Animals are treated with vehicle or testing articles by subcutaneous injection just prior to food removal overnight (16:00). The following morning at 08:00, 16 hours post compound injection, blood samples are taken to measure time zero glucose. Animals are given an oral dose of glucose of 2 g/kg. Glucose is measured 15, 30, 60, and 120 minutes post the oral glucose challenge. Statistics are analyzed using ANOVA with Dunnett's comparison by JMP 6. Significance is denoted at p≤0.05 vs. vehicle.

Structure (SMILES): CC(C)C[C@H](NC(=O)[C@H](CC(C)C)NC(=O)[C@H](Cc1c[nH]c2ccccc12)NC(=O)[C@H](CCC(=O)O)NC(=O)[C@@H](NC(=O)[C@H](Cc1ccccc1)NC(=O)[C@H](CCC(=O)O)NC(=O)[C@H](CCCCNC(=O)COCCOCCNC(=O)COCCOCCNC(=O)CC[C@H](NC(=O)CCCCCCCCCCCCCCCCCCC(=O)O)C(=O)O)NC(=O)[C@H](C)NC(=O)[C@H](CCCCN)NC(=O)[C@H](CCCCN)NC(=O)[C@H](CCC(=O)O)NC(=O)[C@H](CC(=O)O)NC(=O)[C@H](CC(C)C)NC(=O)[C@H](Cc1ccc(O)cc1)NC(=O)[C@H](CCCCN)NC(=O)[C@H](CO)NC(=O)[C@H](Cc1ccc(O)cc1)NC(=O)[C@H](CC(=O)O)NC(=O)[C@H](CO)NC(=O)[C@@H](NC(=O)[C@H](Cc1ccccc1)NC(=O)[C@@H](NC(=O)CNC(=O)[C@H](CCC(N)=O)NC(=O)C(C)(C)NC(=O)[C@@H](N)Cc1c[nH]cn1)[C@@H](C)O)[C@@H](C)O)C(C)C)C(=O)N[C@@H](CCC(=O)O)C(=O)NCC(=O)NCC(=O)N1CCC[C@H]1C(=O)N[C@@H](CO)C(=O)N[C@@H](CO)C(=O)NCC(N)=O [Compound 2]
- Glucose AUC (% of vehicle) ([1]; 1 nmol/kg sc): 76* % of vehicle
- Glucose AUC (% of vehicle) ([1]; 3 nmol/kg sc): 50* % of vehicle
- Glucose AUC (% of vehicle) ([1]; 10 nmol/kg sc): 39* % of vehicle
- glucose during the tolerance test ([1]; male DIO mice, 1, 3 and 10 nmol/kg): dose-dependent decrease in glucose
- Glucose AUC (% of vehicle) ([2]; 1 nmol/kg sc): 70* % of vehicle
- Glucose AUC (% of vehicle) ([2]; 3 nmol/kg sc): 48* % of vehicle
- Glucose AUC (% of vehicle) ([2]; 10 nmol/kg sc): 35* % of vehicle
- glucose excursion during the tolerance test ([2]; male STZ mice, 1, 3 and 10 nmol/kg): dose dependent decrease in glucose excursion
